Where two headings read alike, the source gives them in different places.
What was measured:
normolipidaemic rats [1] = test: Effects on serum lipids in vivo, rat Model A (Oxoid diet); set-up: species or system Male Sprague-Dawley rats; conditions: po, 168 h, compound at 0.1% of the diet (approximately 100 mg/kg/day), 7 days
Protocol: (§1) The compounds of the Examples above were tested for their effects on serum lipids in vivo using normolipidaemic rats.
(§2) Male Sprague-Dawley rats, 80-100 g, were randomised into groups of 8 after 5-7 days of feeding on the diet. The compounds were fed to the rats at a concentration of 0.1% of the powered diet (i.e. approximately 100 mg/kg/day), unless otherwise stated. The control groups were fed only the diet. At the end of the experiment, i.e. after 7 days, the rats were killed and their individual total serum cholesterol and triglyceride measured in mg/100 ml using a Technicon Autoanalyser. The high density lipoprotein (HDL)-cholesterol fraction, which was obtained from the serum by precipitation with heparin-manganous chloride, was only measured on "pooled" samples from each group.
(§3) The results are shown in Table 1 below. • ^+ Model A used an Oxoid diet. • Model B used a semi-synthetic diet rich in sucrose and cholesterol

normolipidaemic rats [2] = test: Effects on serum lipids in vivo, rat Model B (semi-synthetic diet rich in sucrose and cholesterol); set-up: species or system Male Sprague-Dawley rats; conditions: compound at 0.1% of the diet (approximately 100 mg/kg/day), 7 days, * = significant at p<0.05
Protocol: as §1, §2, §3

[3] = * = significant at p<0.05, read-out: Percentage difference from control values in Total Serum cholesterol
[4] = * = significant at p<0.05, read-out: Percentage difference from control values in Total Serum triglyceride

Compound | change in vivo at 100 mg/kg/day (normolipidaemic rats [1]; [3]) [%] | change in vivo at 100 mg/kg/day (normolipidaemic rats [1]; [4]) [%] | Percentage difference from control values in Total Serum cholesterol (normolipidaemic rats [2]) | Percentage difference from control values in Total Serum triglyceride (normolipidaemic rats [2])
O=C(O)C(Cc1ccc(Cl)cc1)NCc1ccc(Cl)cc1 (racemic) [Example 7, N-(4-Chlorobenzyl)-DL-4-chlorophenylalanine] | 56 | -50 |  | 
O=C(O)C(Cc1ccccn1)NCc1ccc(Cl)cc1 (racemic) [Example 11, DL-2-(4-Chlorobenzylamino)-3-(2-pyridyl)-propionic acid] |  |  | +27^* % | +27%
O=C(O)C(Cc1ccncc1)NCc1ccc(Cl)cc1 (racemic) [Example 12, DL-2-(4-Chlorobenzylamino)-3-(4-pyridyl)-propionic acid] |  |  | -10% | -10%
O=C(O)C(Cc1c[nH]c2ccccc12)NCc1ccc(Cl)cc1 (racemic) [Example 14, N-4-Chlorobenzyl-DL-tryptophan] | 36 |  |  | 
O=C(O)C(CCc1ccccc1)NCc1ccc(Cl)cc1 (racemic) [Example 15, (DL)-2-(4-Chlorobenzylamino)-4-phenylbutyric acid] | 68 | -11 |  | 
O=C(O)[C@H](Cc1ccccc1)NCc1ccc2c(c1)OCO2 [Example 1, N-(3,4-methylenedioxybenzyl)-L-phenylalanine] |  | -31 |  | 
O=C(O)[C@H](Cc1ccccc1)NCc1ccc(Cl)cc1 [Example 2, N-(4-chlorobenzyl)-L-phenylalanine] | 31 | -40 | +14% | -44^* %
O=C(O)[C@@H](Cc1ccccc1)NCc1ccc(Cl)cc1 [Example 3, N-(4-Chlorobenzyl)-D-phenylalanine] |  |  | +49^* % | -67^* %
O=C(O)[C@H](Cc1ccccc1)NCc1ccc(Br)cc1 [Example 4, N-(4-Bromobenzyl)-L-phenylalanine] | 43 | -40 |  | 
O=C(O)[C@H](Cc1ccccc1)NCc1cccc(C(F)(F)F)c1 [Example 5, N-(3-Trifluoromethylbenzyl)-L-phenylalanine] | 47 | -41 |  | 
O=C(O)[C@H](CSCc1ccccc1)NCc1ccc(Cl)cc1 [Example 8, N-(4-Chlorobenzyl)-S-benzyl-L-cysteine] | 52 | -35 |  | 
O=C(O)[C@H](Cc1ccc(O)cc1)NCc1ccc(Cl)cc1 [Example 17, N-4-chlorobenzyl-tyrosine] |  | -18 |  | 
COC(=O)[C@H](Cc1ccccc1)NCc1ccc(Cl)cc1 [Example 18, N-(4-chlorobenzyl)-L-phenylalanine methyl ester] | 25 | -43 |  | 
